Each structure is given as a SMILES string.

From US11753411B2, “Substituted pyrazolo[1,5-a]pyrimidines as TYK2 pseudokinase ligands” (Ventyx Biosciences, Inc., priority 2019, dated 2023) come the findings set out here.

The subject of this test is IFN-a/Jak1 Tyk2. The test is described as follows: Co-stimulation assay in lysed whole blood: IFNa (JAK1/TYK2) stimulated STAT1 phosphorylation. In kind it is cell-based. To be noted: Homo sapiens, 20 min, 100 ng/mL IFNa (with 10 ng/mL GM-CSF), pSTAT by flow cytometry. As to the method:
Example 12: Co-Stimulation Assay in Lysed Whole Blood; JAK2: GM-CSF Stimulated STAT5 Phosphorylation and JAK1/TYK2 Stimulated STAT1 Phosphorylation Assay
Human Blood Lysis Using Abcam's RBC Lysis Buffer
Dilute RBC lysis buffer to 1× in distilled water. Add 2 mL blood to 38 mL of 1×RBC-lysis buffer. Incubate for 15 mins at RT, in dark. Spin at 300 g, 5 mins, to collect the pellet. Re-lyse if necessary. Re-suspend pellet in 5 mL of cRPMI.
Compound and Cytokine Treatment
Aliquot 80 μL of lysed human blood in to wells of 96 deep-well plate. Add 10 μl of (10× conc.) of different concentrations of compounds to all wells except controls (unstained and unstimulated) and mix it with the help of 100 uL multichannel. Add 10 uL of RPMI media in controls. For dilution of compounds and dilution range please refer Appendix. Incubate on water bath or CO2 incubator for 1 hour at 37° C. Add 10 μl of (10× conc.) of cytokine mix (GM-CSF and IFNa) (final conc.10 ng/mL of GM-CSF and 100 ng/mL of IFNa) to each well except unstimulated and unstained controls and incubate further for 20 minutes on water bath at 37° C.
Add 900 μL of prewarmed 1× Fix/Lyse solution (Appendix) and mix it properly using 1000 μl multichannel, incubate further on water bath at 37° C. for 10 minutes (which includes time of addition). Centrifuge at 800×g for 5 minutes at 40° C.; remove 900 uL of supernatant and add 900 μL of 1×PBS. Centrifuge at 800×g for 5 minutes at 40° C., remove 900 μL of supernatant. Wash one more time with 900 μL of PBS (optional) and resuspend pellets in 100 uL of PBS.
Disrupt the pellet by gentle tapping and resuspend in 1000 μL of BD Phosflow Perm Buffer III and incubate plate on ice for 30 minutes. Centrifuge plate at 800×g for 5 minutes at 40° C. Wash two more times with 1000 μL of BD Pharmingen Stain Buffer.
Disrupt the pellet by gentle tapping. Resuspend pellets in 100 uL of Stain Buffer and add 5 μL of pSTAT5_AF488 Ab and 5 uL of pSTAT_PE in all wells except unstained control and mix properly using 200 μl multichannel, incubate overnight at […]. Add 900 μL of wash buffer and centrifuge at 1800 rpm for 3 minutes at 40° C. Wash one more time with 1000 μL of BD Pharmingen Stain Buffer. Finally resuspend the pellet in 300 uL of BD Pharmingen Stain Buffer. Transfer the cells to 96-well v-bottom plate and acquire the cells in Beckman Coulter CytExpert. Acquiring cells in Flow Cytometer: Keep the threshold value to 250 and cell concentration should not exceed 100-500 cells/μL. Acquire at least 5,000-10,000 cells.
RPMI 1640 Complete Medium: RPMI 1640 media+10% FBS.
Cytokine dilution: 1) GM-CSF Stock at 100 ug/mL. Prepare an intermediate dilution of 1 ug/mL by adding 2 uL of stock into 198 uL of cRPMI. Further dilute to 100 ng/mL by adding 100 uL of the intermediate stock to 900 uL of cRPMI. 2) IFNa Stock at 200 ug/mL. Dilute IFNa stock 1:200 by adding 5 uL of stock into the 1000 uL of 100 ng/mL GM-CSF working stock as above to give a combined working stock of 1000 ng/mL of IFNa and 100 ng/mL GM-CSF (10×). Keep it on ice until used.
Lyse/Fix buffer preparation: Dilute 5× Lyse/Fix buffer to 1× using MQ water and keep at 37° C. until used.
BD Phosflow perm buffer III: Keep on ice/fridge.
A general note: A flow cytometer gives signals particle by particle.

What is called IC50 is the concentration needed to halve the response being measured. The low end stands for greater potency, the high end for weaker potency. As to `CNC(=O)Nc1cnn2c(NC)cc(Nc3cccc4c3OCCO4)nc12` [Compound 7, 1-(5-((2,3-dihydrobenzo[b][1,4]dioxin-5-yl)amino)-7-(methylamino)pyrazolo[1,5-a]pyrimidin-3-yl)-3-methylurea], the 50% inhibitory concentration (IC50) was under 1 µM.
Next, `CNc1cc(Nc2cccc3c2OCCO3)nc2c(NC(N)=O)cnn12` [Compound 10, 1-(5-((2,3-dihydrobenzo[b][1,4]dioxin-5-yl)amino)-7-(methylamino)pyrazolo[1,5-a]pyrimidin-3-yl)urea]: under 1 µM; `[2H]C([2H])([2H])Nc1cc(Nc2cccc3c2OCCO3)nc2c(NC(=O)NC)cnn12` [Compound 13, 1-(5-((2,3-dihydrobenzo[b][1,4]dioxin-5-yl)amino)-7-((methyl-d3)amino)pyrazolo[1,5-a]pyrimidin-3-yl)-3-methylurea]: under 1 µM; `CNC(=O)Nc1cnn2c(NC)cc(Nc3cccn(-c4ccc(OC)nn4)c3=O)nc12` [Compound 17, 1-(5-((1-(6-methoxypyridazin-3-yl)-2-oxo-1,2-dihydropyridin-3-yl)amino)-7-(methylamino)pyrazolo[1,5-a]pyrimidin-3-yl)-3-methylurea]: 1 to 10 µM.
Consider `CNC(=O)Nc1cnn2c(NC)cc(Nc3cccc(-c4cnn(C)c4)c3OC)nc12` [Compound 19, 1-(5-((2-methoxy-3-(1-methyl-1H-pyrazol-4-yl)phenyl)amino)-7-(methylamino)pyrazolo[1,5-a]pyrimidin-3-yl)-3-methylurea], for which the IC50 was 1 to 10 µM.
`CNc1cc2nc3c(cnn13)NC(=O)NCCOc1cccc(c1)N2` [Compound 22, (1^3E,1^4E)-1^7-(methylamino)-4-oxa-2,7,9-triaza-1(5,3)-pyrazolo[1,5-a]pyrimidina-3(1,3)-benzenacyclononaphan-8-one] had a half-maximal inhibitory concentration (IC50) of 1 to 10 µM.
`CNc1cc2nc3c(cnn13)NC(=O)NCCc1cccc(c1)N2` [Compound 25, (1^3E,1^4E)-1^7-(methylamino)-2,6,8-triaza-1(5,3)-pyrazolo[1,5-a]pyrimidina-3(1,3)-benzenacyclooctaphan-7-one] returned an IC50 of under 1 µM.
The value for `CNc1cc(Nc2cccc3c2OCCO3)nc2c(NC(=O)N[C@@H]3C[C@@H]3F)cnn12` [Compound 26, 1-(5-((2,3-dihydrobenzo[b][1,4]dioxin-5-yl)amino)-7-(methylamino)pyrazolo[1,5-a]pyrimidin-3-yl)-3-((1R,2S)-2-fluorocyclopropyl)urea] was under 1 µM; that for `CNc1cc(Nc2cccc3c2OCCO3)nc2c(NC(=O)NC3CC(C#N)C3)cnn12` (centres unmarked) [Compound 27, 1-(3-cyanocyclobutyl)-3-(5-((2,3-dihydrobenzo[b][1,4]dioxin-5-yl)amino)-7-(methylamino)pyrazolo[1,5-a]pyrimidin-3-yl)urea] was under 1 µM.
Next, `CNc1cc(Nc2cccc3c2OCCO3)nc2c(NC(=O)NC3(C#N)CC3)cnn12` [Compound 28, 1-(1-cyanocyclopropyl)-3-(5-((2,3-dihydrobenzo[b][1,4]dioxin-5-yl)amino)-7-(methylamino)pyrazolo[1,5-a]pyrimidin-3-yl)urea]: at least 10 µM; `CNc1cc(Nc2cccc3c2OCCO3)nc2c(NC(=O)NC3CC(O)C3)cnn12` (centres unmarked) [Compound 29, 1-(5-((2,3-dihydrobenzo[b][1,4]dioxin-5-yl)amino)-7-(methylamino)pyrazolo[1,5-a]pyrimidin-3-yl)-3-(3-hydroxycylcobutyl)urea]: 1 to 10 µM.
Next, `CNc1cc(Nc2cccc3nccnc23)nc2c(NC(=O)NC3CC3O)cnn12` (centres unmarked) [Compound 30, 1-(2-hydroxycyclopropyl)-3-(7-(methylamino)-5-(quinoxalin-5-ylamino)pyrazolo[1,5-a]pyrimidin-3-yl)urea]: at least 10 µM; `CNc1cc(Nc2cccc3cccnc23)nc2c(NC(=O)NC3CC3O)cnn12` (centres unmarked) [Compound 31, 1-(2-hydroxycyclopropyl)-3-(7-(methylamino)-5-(quinolin-8-ylamino)pyrazolo[1,5-a]pyrimidin-3-yl)urea]: at least 10 µM; `CNc1cc(Nc2cccc3c2OCCO3)nc2c(NC(=O)NC3CC3O)cnn12` (centres unmarked) [Compound 32, 1-(5-((2,3-dihydrobenzo[b][1,4]dioxin-5-yl)amino)-7-(methylamino)pyrazolo[1,5-a]pyrimidin-3-yl)-3-(2-hydroxycyclopropyl)urea]: at least 10 µM.
`CNc1cc(Nc2cc(C#N)cc3c2OCCO3)nc2c(NC(=O)N[C@@H]3C[C@@H]3F)cnn12` [Compound 33, 1-(5-((7-cyano-2,3-dihydrobenzo[b][1,4]dioxin-5-yl)amino)-7-(methylamino)pyrazolo[1,5-a]pyrimidin-3-yl)-3-((1R,2S)-2-fluorocyclopropyl)urea] came in with an IC50 of under 1 µM.
Next, `CNc1cc(Nc2cccc3c2OCCO3)nc2c(NC(=O)NC3CC(F)(F)C3)cnn12` [Compound 34, 1-(3,3-difluorocyclobutyl)-3-(5-((2,3-dihydrobenzo[b][1,4]dioxin-5-yl)amino)-7-(methylamino)pyrazolo[1,5-a]pyrimidin-3-yl)urea]: 1 to 10 µM; `CNc1cc(Nc2cccc3c2OCCO3)nc2c(NC(=O)NC3CC(F)C3)cnn12` (centres unmarked) [Compound 35, 1-(5-((2,3-dihydrobenzo[b][1,4]dioxin-5-yl)amino)-7-(methylamino)pyrazolo[1,5-a]pyrimidin-3-yl)-3-(3-fluorocyclobutyl)urea]: under 1 µM; `CNc1cc(Nc2cccc3c2OCCO3)nc2c(NC(=O)NC3CC(=O)C3)cnn12` [Compound 36, 1-(5-((2,3-dihydrobenzo[b][1,4]dioxin-5-yl)amino)-7-(methylamino)pyrazolo[1,5-a]pyrimidin-3-yl)-3-(3-oxocyclobutyl)urea]: under 1 µM.
The value for `CNc1cc(Nc2cc(F)cc3c2OCCO3)nc2c(NC(=O)NC3CC3F)cnn12` (centres unmarked) [Compound 37, 1-(5-((7-fluoro-2,3-dihydrobenzo[b][1,4]dioxin-5-yl)amino)-7-(methylamino)pyrazolo[1,5-a]pyrimidin-3-yl)-3-(2-fluorocyclopropyl)urea] was under 1 µM; that for `CNc1cc(Nc2c(F)c(F)cc(F)c2F)nc2c(NC(=O)N[C@@H]3C[C@@H]3F)cnn12` [Compound 38, 1-((1R,2S)-2-fluorocyclopropyl)-3-(7-(methylamino)-5-((2,3,5,6-tetrafluorophenyl)amino)pyrazolo [1,5-a]pyrimidin-3-yl)urea] was 1 to 10 µM; that for `CNc1cc(Nc2cccc3cccnc23)nc2c(NC(=O)N[C@@H]3C[C@@H]3F)cnn12` [Compound 39, 1-((1R,2S)-2-fluorocyclopropyl)-3-(7-(methylamino)-5-(quinolin-8-ylamino)pyrazolo[1,5-a]pyrimidin-3-yl)urea] was under 1 µM.
The value for `[2H]C([2H])([2H])Nc1cc(Nc2cccc3c2OCCO3)nc2c(NC(=O)N[C@@H]3C[C@@H]3F)cnn12` [Compound 40, 1-(5-((2,3-dihydrobenzo[b][1,4]dioxin-5-yl)amino)-7-((methyl-d3)amino)pyrazolo[1,5-a]pyrimidin-3-yl)-3-((1R,2S)-2-fluorocyclopropyl)urea] was under 1 µM; that for `CNc1cc(Nc2cc(F)cc3c2OCCO3)nc2c(NC(=O)N[C@H]3C[C@@H]3F)cnn12` [Compound 41, 1-(5-((7-fluoro-2,3-dihydrobenzo[b][1,4]dioxin-5-yl)amino)-7-(methylamino)pyrazolo[1,5-a]pyrimidin-3-yl)-3-((1S,2S)-2-fluorocyclopropyl)urea] was under 1 µM.
